Results reported in US20100113597A1, “PHARMACEUTICAL COMPOSITION FOR PREVENTION OF PROGRESS OF INTESTINAL CONSTRICTION ASSOCIATED WITH CROHN'S DISEASE” (priority 2007, published 2010).
“Also recorded” adds a separate entry of the source.

How the values were obtained:
Crohn's disease = conditions: single case; tranilast with enteral nutrients, low residue diet and mepenzolate bromide; cited from earlier work
[1] = tested on: intestinal stricture associated with Crohn's disease; assay: Effect of tranilast on progression of intestinal stricture in Crohn's disease patients, randomized against a group not given tranilast; format: in vivo, human (Crohn's disease patients)
Experimental: In 24 Crohn's disease patients with non-symptomatic intestinal stricture, the effect by tranilast on the progression of intestinal stricture associated with Crohn's disease was evaluated and compared between one group administered tranilast and another group not administered tranilast. There was no significant difference in backgrounds of the patients between the groups. The 24 patients were randomly divided into two groups consisting of a group administered tranilast (12 cases) and a group not administered tranilast (12 cases). […] The primary endpoint was a cumulative non-symptomatic stricture rate which was a rate of cases wherein severe symptomatic intestinal stricture requiring balloon dilatation or surgery occurred. In addition, the diameters of the stricture at the beginning of observation (basal diameter) and at the end of observation (final diameter) were measured. The secondary endpoint was a monthly progression rate of the stricture obtained from the rate of the final diameter relative to the basal diameter.

Question: Which results are given for `COc1ccc(C=CC(=O)Nc2ccccc2C(=O)O)cc1OC` [tranilast, N-(3,4-dimethoxycinnamoyl)anthranilic acid]?
Answer: period maintained without exacerbation of symptoms of Crohn's disease (Crohn's disease): 3 years; monthly progression rate of the stricture ([1]; from the final diameter relative to the basal diameter, −0.86% in the group not given tranilast): -0.48%; average diameter of the stricture at the end of observation (final diameter) ([1]; group administered tranilast 200 mg three times daily, median observation 782 days): 5.60 mm; average diameter of the stricture at the beginning of observation (basal diameter) ([1]; group administered tranilast, baseline): 6.40 mm; cases withdrawn due to discontinued administration because of a reduced peripheral white blood cell count ([1]; of 12 cases, tranilast 200 mg three times daily): 1 case; number of cases who required balloon dilatation due to severe intestinal stricture ([1]; tranilast 200 mg three times daily orally, 12 cases, 5 cases in the group not given tranilast): 1 case; incidence of intestinal obstruction/stricture symptoms due to intestinal stricture (cumulative non-symptomatic stricture rate) ([1]; tranilast 600 mg per day versus the group not given tranilast, p=0.0034): significantly inhibited; also recorded: significantly low
